Data: US7365160B2, “Mutated constitutively active nuclear orphan receptor” (The United States of America as represented by the …, priority 2002, dated 2008)

Columns and labels:
mCAR L352A = molecular target: T1, mCAR L352A (Mus musculus, UniProt O35627, L352A); test: luciferase reporter gene activation assay (PBREM) in HepG2 cells, mCAR L352A mutant; format: cell-based; conditions: only in the presence of exogenous SRC-1
T1 construct: mCAR and hCAR expression vectors were constructed by cloning an entire mCAR; expressed in transfected cells; host or cells: HepG2
T1 sequence (O35627 1-358 L352A): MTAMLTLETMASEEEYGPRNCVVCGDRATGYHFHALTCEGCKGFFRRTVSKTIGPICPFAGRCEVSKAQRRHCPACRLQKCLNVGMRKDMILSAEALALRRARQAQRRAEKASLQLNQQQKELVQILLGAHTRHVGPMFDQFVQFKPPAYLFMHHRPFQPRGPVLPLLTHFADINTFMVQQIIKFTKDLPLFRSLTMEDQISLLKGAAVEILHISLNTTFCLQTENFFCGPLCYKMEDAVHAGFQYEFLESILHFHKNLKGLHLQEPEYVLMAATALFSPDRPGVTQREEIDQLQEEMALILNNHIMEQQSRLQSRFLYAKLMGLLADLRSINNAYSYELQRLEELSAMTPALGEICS
Text: To examine the role of Leu352 in mCAR activity, site-directed mutagenesis was used as described in EXAMPLES 2 and 6.

[1] = test system: chimeric receptors hmm and hhm; test: luciferase reporter assay in HepG2 cells, chimeric receptors with mouse LBD; format: cell-based, mouse/human; conditions: chimeras hmm and hhm repressed by KN-62
mCAR T176V / T176L = test: luciferase reporter gene activation assay (PBREM) in HepG2 cells, mCAR Thr176 mutants; conditions: T176V or T176L; did not require exogenous SRC-1

Compound: Clc1cnc(Oc2ccc(Oc3ncc(Cl)cc3Cl)cc2)c(Cl)c1 [TCPOBOP, 1,4-bis [2-(3,5-dichloropyridyloxy)]benzene]
- activation of L352A mutant (mCAR L352A): activated
- re-activation of KN-62-repressed chimeric receptors [1]: re-activated
- activation of mutated mCAR (mCAR T176V / T176L): effectively activated
